According to patent publication US12016864B2, “LOX enzyme inhibiting methods and compositions” (ANOVIA BIOSCIENCES, INC., priority 2021, dated 2024):

How the values were obtained:
[1] = biological target: T1, Recombinant human LOXL3 (lysyl oxidase like 3) (Homo sapiens, UniProt P58215); test: LOXL3 inhibition assay, fluorometric (cadaverine / HRP / Amplex Red); assay type: biochemical; conditions: recombinant human LOXL3 150 nM; 30 min preincubation at 37° C.; 1 mM cadaverine; read-out: Activity Range LOXL3
T1 construct: purchased R&D systems
T1 sequence (P58215 26-753): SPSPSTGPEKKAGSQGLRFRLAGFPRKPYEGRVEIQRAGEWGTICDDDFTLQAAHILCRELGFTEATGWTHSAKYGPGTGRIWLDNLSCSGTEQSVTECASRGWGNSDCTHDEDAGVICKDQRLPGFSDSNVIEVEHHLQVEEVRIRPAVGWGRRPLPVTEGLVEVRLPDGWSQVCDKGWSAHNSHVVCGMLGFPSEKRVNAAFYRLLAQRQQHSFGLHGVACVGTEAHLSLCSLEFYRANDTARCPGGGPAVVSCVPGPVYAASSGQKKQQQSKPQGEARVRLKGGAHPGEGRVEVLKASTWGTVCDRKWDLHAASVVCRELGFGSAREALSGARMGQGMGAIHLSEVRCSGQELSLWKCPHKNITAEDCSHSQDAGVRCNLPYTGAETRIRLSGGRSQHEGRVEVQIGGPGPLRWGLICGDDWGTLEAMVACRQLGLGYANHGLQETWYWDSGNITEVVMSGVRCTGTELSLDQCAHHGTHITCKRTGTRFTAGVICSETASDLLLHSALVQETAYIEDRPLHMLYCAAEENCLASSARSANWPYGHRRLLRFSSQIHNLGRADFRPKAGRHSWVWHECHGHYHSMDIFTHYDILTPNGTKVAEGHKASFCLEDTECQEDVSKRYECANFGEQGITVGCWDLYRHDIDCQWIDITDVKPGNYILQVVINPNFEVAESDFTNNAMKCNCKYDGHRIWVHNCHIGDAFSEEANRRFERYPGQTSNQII
Procedure: The ability of compounds to inhibit one or more of the lysyl oxidases LOXL2 and/or LOXL3 was determined using a fluorometric assay. This assay measures the activity of lysyl oxidases by coupling the reaction with horseradish peroxidase-catalyzed […]. The activity assay protocol uses cadaverine as substrate that releases hydrogen peroxide upon transformation by the specific LOX family enzyme present in the sample. Hydrogen peroxide is in turn detected using a red fluorescence substrate for HRP-coupled reactions (Amplex Red Enzyme Assays, Thermo Scientific Fisher). This leads to increase in fluorescence that can be easily detected at Ex/Em=540/590 nm in a fluorescence microplate reader.
Recombinant human LOXL2 (lysyl oxidase like 2) and recombinant human LOXL3 (lysyl oxidase like 3) were purchased from R&D systems and assays were performed in 1.2 M urea, 50 mM sodium borate buffer pH 8.0, and 10 mM CaCl.
5 μl of freshly prepared reaction buffer were delivered to reaction wells. Compounds were resuspended in 100% DMSO at 10 mM and delivered into buffer using acoustic technology (Echo550; nanoliter range). A 3× solution of LOXL2 or LOXL3 in reaction buffer was prepared (“enzyme solution”) and 5 μL of enzyme solution was added into the reaction wells. Buffer only was added to column 1 for no protein control. Reactions were incubated for 30 minutes at 37° C. A 3× mixture of cadaverine, Amplex Red, and HRP (“Substrate/Detection Mix) was prepared and subsequently 5 μL of the mixture added to each reaction well. Progress of reactions was monitored for 60 minutes at 37° C. using Clariostar plate reader (ex 530-12, ems 600-40). For all activity assays, pan-LOX inhibitor CCT365623 (Tang et al, 2017) and LOXL2/LOXL3 inhibitor PAT-1251 (PharmaKea) were included as standards.
For the data analysis, the slope of the linear portion of the progress curve was calculated using Clariostar software. Typical analysis interval was between 8-30 min, but varied between experiments. The background-subtracted signals (No protein wells are considered as background) were converted to % activity relative to DMSO controls. Data was analyzed using GraphPad Prism 4 with “sigmoidal dose-response (variable slope)”; 4 parameters with Hill Slope. Constraints: Bottom=Constant equal to 0. Top=Must be less than 120.

[2] = biological target: T2, Recombinant human LOXL2 (lysyl oxidase like 2) (Homo sapiens, UniProt Q9Y4K0); test: LOXL2 inhibition assay, fluorometric (cadaverine / HRP / Amplex Red); assay type: biochemical; conditions: recombinant human LOXL2 130 nM; 30 min preincubation at 37° C.; 2.5 mM cadaverine; read-out: Activity Range LOXL2
T2 construct: purchased R&D systems
T2 sequence (Q9Y4K0 26-774): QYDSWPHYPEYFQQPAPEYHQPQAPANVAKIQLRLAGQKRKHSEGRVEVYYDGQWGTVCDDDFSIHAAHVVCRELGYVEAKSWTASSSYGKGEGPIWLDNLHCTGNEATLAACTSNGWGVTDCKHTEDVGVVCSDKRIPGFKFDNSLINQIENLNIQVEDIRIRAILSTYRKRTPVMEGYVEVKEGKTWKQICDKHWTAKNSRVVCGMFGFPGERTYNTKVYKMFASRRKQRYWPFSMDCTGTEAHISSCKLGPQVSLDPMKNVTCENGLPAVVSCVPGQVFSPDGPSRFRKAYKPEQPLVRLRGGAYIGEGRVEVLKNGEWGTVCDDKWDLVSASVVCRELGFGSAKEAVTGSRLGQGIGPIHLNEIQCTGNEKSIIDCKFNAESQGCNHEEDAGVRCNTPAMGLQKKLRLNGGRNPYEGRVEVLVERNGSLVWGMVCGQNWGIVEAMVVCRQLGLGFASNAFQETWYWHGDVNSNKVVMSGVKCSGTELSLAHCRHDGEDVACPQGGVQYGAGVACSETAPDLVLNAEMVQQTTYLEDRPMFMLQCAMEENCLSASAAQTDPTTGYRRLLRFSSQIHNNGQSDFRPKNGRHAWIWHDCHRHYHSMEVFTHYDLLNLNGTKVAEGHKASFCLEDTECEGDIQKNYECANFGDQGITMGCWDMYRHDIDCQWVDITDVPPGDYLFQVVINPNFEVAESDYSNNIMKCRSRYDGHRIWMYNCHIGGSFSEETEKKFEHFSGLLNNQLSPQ
Summary of the method: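 Recombinant human LOXL2 or LOXL3 in 1.2 M urea, 50 mM sodium borate pH 8.0, 10 mM CaCl, preincubated with compound 30 min at 37 °C. Cadaverine substrate added; H2O2 detected by HRP/Amplex Red fluorescence, read kinetically for 60 min at 37 °C. Initial-rate slopes, background-subtracted and normalised to DMSO, fitted to a 4-parameter curve with bottom fixed at 0.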

| Structure (SMILES) | IC50 [1] [µM] | IC50 [2] [µM] |
| --- | --- | --- |
| NCc1ccnc(S(=O)(=O)C[C@@H]2C[C@H](c3ccccc3)CN2S(=O)(=O)N2CCOCC2)c1 (racemic) [Example 195, Cis-(2-(((1-(Morpholinosulfonyl)-4-phenylpyrrolidin-2-yl)methyl)sulfonyl)pyridin-4-yl)methanamine 2,2,2-trifluoroacetate] | ≤ 0.5 | ≤ 0.5 |
| NCc1ccnc(S(=O)(=O)C[C@@H]2C[C@H](c3ccccc3)CN2S(=O)(=O)N2CCS(=O)(=O)CC2)c1 (racemic) [Example 196, cis-4-((2-(((4-(Aminomethyl)pyridin-2-yl)sulfonyl)methyl)-4-phenylpyrrolidin-1-yl)sulfonyl)thiomorpholine 1,1-dioxide 2,2,2-trifluoroacetate] | ≤ 0.5 | ≤ 0.5 |
| NCc1ccnc(S(=O)(=O)C[C@H]2C[C@@H](c3ccccc3)CN2S(=O)(=O)N2CCOCC2)c1 (single isomer, unassigned) [Example 195A] | ≤ 0.5 | ≤ 0.5 |
| NCc1ccnc(S(=O)(=O)C[C@@H]2C[C@H](c3ccccc3)CN2S(=O)(=O)N2CCOCC2)c1 (single isomer, unassigned) [Example 195B] | ≤ 0.5 | ≤ 0.5 |
| NCc1ccnc(S(=O)(=O)C[C@@H]2C[C@H](c3ccccc3)CN2S(=O)(=O)N2CCS(=O)(=O)CC2)c1 [Example 196A, 4-(((2S,4R)-2-(((4-(aminomethyl)pyridin-2-yl)sulfonyl)methyl)-4-phenylpyrrolidin-1-yl)sulfonyl)thiomorpholine 1,1-dioxide 2,2,2-trifluoroacetate] | ≤ 0.5 | ≤ 0.5 |
| NCc1ccnc(S(=O)(=O)C[C@H]2C[C@@H](c3ccccc3)CN2S(=O)(=O)N2CCS(=O)(=O)CC2)c1 [Example 196B, 4-(((2R,4S)-2-(((4-(aminomethyl)pyridin-2-yl)sulfonyl)methyl)-4-phenylpyrrolidin-1-yl)sulfonyl)thiomorpholine 1,1-dioxide 2,2,2-trifluoroacetate] | ≤ 0.5 | ≤ 0.5 |
